Measured values from ChEMBL document CHEMBL1140817, “Synthesis and anti-HIV activity of 2'-fluorine modified nucleoside phosphonates: analogs of GS-9148” (Bioorg Med Chem Lett, 2008).

Columns and labels:
[1] = test system: Human immunodeficiency virus 1; experiment: Antiviral activity against HIV1 3B in MT2 cells; type: functional, organism-based; details: Human immunodeficiency virus 1, 3B
[2] = Cytotoxicity against human MT2 cells; type: cell-based

| Compound | EC50 [1] | CC50 [2] |
| --- | --- | --- |
| Nc1ncnc2c1ncn2[C@@H]1O[C@H](OCP(=O)(O)O)C[C@@H]1F | 283 µM | > 1000 µM |
| Nc1nc2c(ncn2[C@@H]2O[C@H](OCP(=O)(O)O)C=C2F)c(=O)[nH]1 | 17.4 µM | 700 µM |
| Nc1nc(N)c2ncn([C@@H]3O[C@H](OCP(=O)(O)O)C=C3F)c2n1 | > 300 µM | – |
| O=c1[nH]cnc2c1ncn2[C@@H]1O[C@H](OCP(=O)(O)O)C=C1F | > 300 µM | – |
| Nc1ncnc2c1ncn2[C@@H]1O[C@H](OCP(=O)(O)O)C=C1F [GS-9148] | 12.3 µM | > 1000 µM |
| C[C@H](Cn1cnc2c(N)ncnc21)OCP(=O)(O)O [TENOFOVIR ANHYDROUS] | 3.6 µM | > 1000 µM |
